Results from PMC5701137, “Discovery of novel choline acetyltransferase inhibitors using structure-based virtual screening” (Scientific Reports, 2017).
pIC50, pKi: −log10 of the molar value. Several values for one entry are separate records, joined by “and”; a condition that tells them apart may be missing. Equal entries are not always repeated.

Key:
human rChAT [1] = biological target: T1, human rChAT (Homo sapiens, UniProt P28329); assay: In vitro ChAT activity inhibition fluorometric assay and kinetic studies; assay type: biochemical; settings: for mode of inhibition of human rChAT: Lineweaver-Burk plot and nonlinear regression fit; for Vmax of rChAT: inhibitor 0.4 µM, mean ± SEM of two experiments; for pKi / pIC50: mean of two experiments; for pIC50: substrate concentrations 20 to 80 µM
T1 construct: made in house; host or cells: E. coli BL21 Rosetta2
T1 sequence (P28329 1-630 isoform P28329-3): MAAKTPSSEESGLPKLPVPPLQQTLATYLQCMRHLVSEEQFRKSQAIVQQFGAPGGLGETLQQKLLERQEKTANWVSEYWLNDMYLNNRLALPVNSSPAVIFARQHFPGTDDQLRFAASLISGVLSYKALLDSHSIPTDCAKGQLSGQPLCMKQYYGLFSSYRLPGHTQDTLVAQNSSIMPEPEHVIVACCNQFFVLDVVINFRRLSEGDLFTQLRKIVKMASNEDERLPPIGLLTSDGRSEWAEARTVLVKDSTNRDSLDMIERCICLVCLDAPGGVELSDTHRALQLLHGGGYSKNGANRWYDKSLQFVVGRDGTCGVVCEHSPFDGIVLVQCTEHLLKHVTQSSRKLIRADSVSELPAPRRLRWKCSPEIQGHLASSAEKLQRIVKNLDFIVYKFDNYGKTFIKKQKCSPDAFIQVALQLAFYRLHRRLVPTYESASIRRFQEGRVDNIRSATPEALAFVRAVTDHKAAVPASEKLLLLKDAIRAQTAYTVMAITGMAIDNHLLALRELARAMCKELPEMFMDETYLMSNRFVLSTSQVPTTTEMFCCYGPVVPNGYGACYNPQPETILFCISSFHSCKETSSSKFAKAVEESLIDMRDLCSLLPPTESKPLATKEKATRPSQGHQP
Method: ChAT activity was measured using our newly developed fluorometric assay, using human recombinant ChAT (rChAT) protein. The reagents, choline chloride, acetyl coenzyme-A (ACoA, A2181) and 7-Diethylamino-3-(4-maleimidophenyl)-4-methylcoumarin (CPM) were purchased from Sigma-Aldrich (St. Louis, MO, USA).
The ChAT assay could be run in either 96-well or 384-well plates. For 96-well plates, 50 μL/well of 0.212 µg/ml (final concentration) of the recombinant ChAT was incubated with 100 μM different Asinex compounds (50 μL/well) for 10–30 minutes at room temperature in dilution buffer (10 mM Tris-HCl, pH 7.4, 150 mM NaCl, 1.0 mM EDTA, 0.05% (v/v) Triton X-100). Then, 50 µL of a cocktail-A [dilution buffer containing choline chloride (final concentration 150 µM), ACoA (final concentration 13.3 µM) and CPM (final concentration 15 µM)] was added to each well. Immediately after adding the cocktail-A, the changes in fluorescence was monitored kinetically at 479 nm after exciting at 390 nm at 1–2 minute intervals for 15–20 minutes using a microplate spectrophotometer reader (Infinite M1000, Tecan).
Each Asinex compounds were run in triplicates. On each 96-wells plate, several enzyme wells without inhibitor were also included during measurements as control and for estimating the inhibition level. Negative controls were wells without enzyme. The percentage inhibition for each Asinex compound was calculated based on the enzyme control value as a reference (100% activity). The compounds showing over 50% inhibition of enzyme activity were selected for further kinetic studies.
For kinetic studies, a similar protocol as inhibition assay was followed; a dilution series of five different concentrations ranging from 10^−6 to 10^−9 M were prepared for each selected Asinex compounds. For ChAT, the A-CoA was kept constant at 10 μM (final) but the concentration of choline chloride varied between 320–10 μM. For BuChE, BTC was used as the substrate in the concentrations ranging from 0.0625 to 2 mM. For AChE, ATC was used as the substrate in the concentrations ranging from 0.0312 to 1 mM. Each compound concentration was measured in duplicates. The rate of enzyme activity (as ∆OD/hr kinetic data) was calculated and processed using the GraphPad Prism 7 analysis software. The inhibitory constant (Ki) values were determined from the dose-response curve and the half-maximal inhibitory concentration (IC50) values were calculated by plotting the percentage enzyme activity vs. the log of the Asinex compound concentrations and fitting the data using the nonlinear regression Enzyme Kinetics-Inhibition function.
The Michaelis-Menten constant (Km) and maximal velocity (Vmax) values were calculated from substrate-velocity curve after fitting the data with non-linear regression Michaelis-Menten kinetic function. The Km and Vmax values were further used to plot the Lineweaver-Burk plots; the plots were fitted using linear regression function.

HEK 293 cells = assay: MTT cell viability assay; assay type: cell-based; settings: for % of cell proliferation: overnight, control cells 100%, mean ± SD of 3 readings; for cellular toxicity in MTT assay (in words): 10 and 50 µM
Method: Finally, to assess the prospective of the identified compounds for further development into ChAT ligands, we assessed the compounds active against ChAT, AChE and BuChE, for their cellular toxicity on human embryonic kidney (HEK 293) cells using the cell viability 3-(4,5-dimethylthiazol-2-yl)-2,5-diphenyltetrazolium bromide (MTT) assay. All compounds were evaluated at 10 and 50 µM concentrations. The cell viability data is given in Table 4 (also represented as a bar chart in Fig. 9).
The in vitro cellular toxicity of the active compounds was evaluated using MTT assay. Briefly, Human embryonic kidney epithelial (HEK-293) cells cultured at 37 °C in a humidified environment with 5% CO2 in Dulbecco’s Modified Eagle’s medium (DMEM) in 96 well plate to obtain 70–80% confluency. Further, the cells were incubated overnight at 37 °C with 10 µM and 50 µM compounds in triplicate. Cells treated with 1% DMSO were used as controls. At the end of the treatment (12 h), 10 μL of 12 mM MTT dissolved in Phosphate buffer saline pH 7.4, was added to each well and incubated for an additional 2 h at 37 °C. The media was then removed from the plate and 100 µL of DMSO was added to dissolve the violet formazan crystals. Finally, the absorbance was measured at 540 nm with a reference wavelength of 630 nm on Tecan spectrophotometer with shaking before the reading. The percentage viability was calculated taking 1% DMSO control as 100 percent and presented as mean ± SD.

human rChAT [2] = biological target: T1, human rChAT; assay: In vitro ChAT activity inhibition fluorometric assay and kinetic studies; assay type: biochemical; settings: mean ± SEM of two experiments

Structure (SMILES): CC(C)NC(=O)C1CCN(C(=O)c2csc(Nc3cccc4ccccc34)n2)CC1 [Compound B4]
- mode of inhibition of human rChAT (human rChAT [1]): mixed-model type inhibition
- Vmax of rChAT (human rChAT [1]): 239.0 ± 21.4 µM/min
- pKi (human rChAT [1]): 4.92
- pIC50 (human rChAT [1]): ~4.78 and 4.78
- % of cell proliferation (HEK 293 cells; 10 µM): 106.4 ± 5.8%
- % of cell proliferation (HEK 293 cells; 50 µM): 74.2 ± 3.9%
- cellular toxicity in MTT assay (in words) (HEK 293 cells): lower cellular toxicity
- Vmax of rChAT (human rChAT [2]; inhibitor 2.0 µM): 226 ± 20.9 µM/min
- Vmax of rChAT (human rChAT [2]; inhibitor 10.0 µM): 150.9 ± 13.5 µM/min
- Vmax of rChAT (human rChAT [2]; inhibitor 50.0 µM): 92.1 ± 19.4 µM/min
- Vmax of rChAT (human rChAT [2]; inhibitor 250.0 µM): 45.5 ± 8.5 µM/min

Structure (SMILES): CC(C)c1ccc(C(=O)CSc2n[nH]c(-c3ccco3)n2)cc1 [Compound E1]
- inhibition at 100 µM (human rChAT [1]; 100 µM compound, compared to control, mean of three experiments in triplicate, read-out: ChAT % IR (inhibition rate)): > 50%
- mode of inhibition of human rChAT (human rChAT [1]): mixed-model inhibition
- Vmax of rChAT (human rChAT [1]): 276.1 ± 12.1 µM/min
- pKi (human rChAT [1]): ~4.82 and 4.82
- pIC50 (human rChAT [1]): ~4.60 and 4.60
- % of cell proliferation (HEK 293 cells; 10 µM): 101.9 ± 0.6%
- % of cell proliferation (HEK 293 cells; 50 µM): 75.4 ± 4.9%
- cellular toxicity in MTT assay (in words) (HEK 293 cells): lower cellular toxicity
- Vmax of rChAT (human rChAT [2]; inhibitor 2.0 µM): 265.1 ± 11.7 µM/min
- Vmax of rChAT (human rChAT [2]; inhibitor 10.0 µM): 243.8 ± 22.0 µM/min
- Vmax of rChAT (human rChAT [2]; inhibitor 50.0 µM): 167.8 ± 10.4 µM/min
- Vmax of rChAT (human rChAT [2]; inhibitor 250.0 µM): 160.3 ± 16.8 µM/min
